Measured values: PubChem BioAssay AID1963450 (Molecular Pharmacology Branch, DTP, NCI, 2024)
pIC50: −log10 of the molar value.

System: 556581-035-R-J1-PDC complex spheroid growth
Assay: Anticancer human tumor 556581-035-R-J1-PDC patient-derived ovarian carcinoma cell line growth inhibition [Asc]
Conditions: for viability, T/C: stronger effect = lower value
Procedure: Multicellular complex tumor spheroid response to apoptosis pathway targeting inhibitors Alrizomadlin, Pelcitoclax, and Dasminapant in combination with a variety of drugs and investigational agents in selected tumor cell lines
The MDM2 inhibitor alrizomadlin, the Bcl-2/Bcl-xL inhibitor pelcitoclax, and the IAPs inhibitor dasminapant were evaluated both individually and in combination with standard of care and investigational anticancer small molecules within a complex spheroid model of solid tumors. . Complex spheroids include a stromal component modeled by human endothelial cells (HUVEC) and fibroblasts modeled by human mesenchymal stem cells (MSCs). The concentration ranges selected for each drug and investigational agent were based upon clinically achievable concentrations if the clinical Cmax of the agent was known.
Compounds. The drugs and investigational agents: alrizomadlin (APG-115; NSC831270), pelcitoclax (APG-1252; NSC835773), dasminapant (APG-1387;NSC834197), TAK-243 (NSC785004), copanlisib (NSC809693), olaparib (NSC753686), talazoparib (NSC767125), cobimetinib (NSC 768068), eltanexor (KPT-8602, NSC 794443), abemaciclib (NSC 768073), sotorasib (NSC818433), adagrasib (NSC 831453), MRTX-1133 (NSC 836407), Iadademestat (ORY1001, NSC 806812), and RMC-4630 (NSC839698), were obtained from the NCI Developmental Therapeutics Program Chemical Repository. The FDA-approved anticancer drug set is available from the Developmental Therapeutics Program at https://dtp.cancer.gov/organization/dscb/obtaining/available plates.htm. […] The stock solutions were prepared in dimethyl sulfoxide (DMSO, Sigma-Aldrich, St. Louis, MO, cat. D2650) at 800-fold the tested concentration and stored at -70 degrees C prior to their use. All drugs and investigational agents were tested over a range starting from a high concentration at or near the clinical Cmax and decreasing in half-log increments. If the clinical Cmax for an agent had not been determined, the highest concentration tested was 10 microM.
The patient-derived cancer (PDC) cell lines include five colon adenocarcinomas: 186277-243-T-J2-PDC, 616215-338-R-J1-PDC, 439559-082-T-J2-PDC, 463943-066-T-J2-PDC, and 519858-162-T-J1-PDC; three pancreatic carcinomas: 323965-272-R-J2-PDC, 521955-158-R6-J3-PDC, and 521955-158-R2-J5-PDC; two uterine sarcomas: 327498-152-R-J2-PDC and 993429-296-R-J1-PDC; two rhabdomyosarcomas: 755483-174-R-J1-PDC and 772245-204-R-J1-PDC; two soft tissue sarcomas: 126254-015-R-J1-PDC and 494315-158-R-J1-PDC; two malignant fibrous histiocytomas: 317291-083-R-J1-PDC and 596521-263-R-J1-PDC; two breast carcinomas: 171881-019-R-J1-PDC and 885512-296-R-J2-PDC; and one ovarian carcinoma: 6556581-035-R-J-PDC were obtained from the NCI PDMR, (https://pdmr.cancer.gov). The established cell lines HSSY-2 synovial sarcoma (RRID:CVCL 8719), SYO-1 synovial sarcoma (RRID:CVCL_7146), MPNST malignant peripheral neural sheath tumor were obtained from the Sloan Kettering Institute. The following established cell lines were purchased from the American Type Culture Collection (ATCC, Manassas, VA), Sor the received from the NCI repository:, PANC-1 pancreatic carcinoma (CRL-1469, RRID:CVCL_0480), OVCAR-5 ovarian carcinoma (RRID:CVCL_1628), OVCAR-8 ovarian carcinoma (RRID:CVCL_1629), , MCF-7 breast carcinoma (CRL-12584, RRID:CVCL_0031), MDA-MB-231 breast carcinoma (CRL-12532, RRID:CVCL_0062), NCI-H1876 small cell lung carcinoma (CRL-5902, RRID:CVCL_1503), NCI-H510A small cell lung carcinoma (HTB-184, RRID:CVCL_1565), NCI-H1417 (CRL-5869, RRID:CVCL_1469), and NCI-H196 small cell lung carcinoma (CRL-5823, RRID:CVCL_1509). Dr. Peter Houghton (Greehey Children's Cancer Research Institute, University of Texas Health Science Center, San Antonio, TX) provided Rh-18 rhabdomyosarcoma (RRID:CVCL_1659). Pooled donor human umbilical vein endothelial cells (HUVEC, Lonza, cat. CC-2519) and human mesenchymal stem cells (hMSC, Lonza, cat. PT-2501) were purchased from Lonza (Walkersville, MD).
Cell Culture. […]

[1] = curve of first compound, second compound 0.03 µM
[2] = curve of first compound, second compound 0.0949 µM
[3] = curve of first compound, second compound 0.3 µM
[4] = curve of first compound, second compound 0.949 µM
[5] = curve of first compound, second compound 3 µM
[6] = second compound 0.03 µM, first compound 0.00316 µM
[7] = second compound 0.03 µM, first compound 0.01 µM
[8] = second compound 0.03 µM, first compound 0.0316 µM
[9] = second compound 0.03 µM, first compound 0.1 µM
[10] = second compound 0.0949 µM, first compound 0.00316 µM
[11] = second compound 0.0949 µM, first compound 0.01 µM
[12] = second compound 0.0949 µM, first compound 0.0316 µM
[13] = second compound 0.0949 µM, first compound 0.1 µM
[14] = second compound 0.3 µM, first compound 0.00316 µM
[15] = second compound 0.3 µM, first compound 0.01 µM
[16] = second compound 0.3 µM, first compound 0.0316 µM
[17] = second compound 0.3 µM, first compound 0.1 µM
[18] = second compound 0.949 µM, first compound 0.00316 µM
[19] = second compound 0.949 µM, first compound 0.01 µM
[20] = second compound 0.949 µM, first compound 0.0316 µM
[21] = second compound 0.949 µM, first compound 0.1 µM
[22] = second compound 3 µM, first compound 0.00316 µM
[23] = second compound 3 µM, first compound 0.01 µM
[24] = second compound 3 µM, first compound 0.0316 µM
[25] = second compound 3 µM, first compound 0.1 µM
[26] = second compound 0.03 µM, first compound 0.316 µM
[27] = second compound 0.03 µM, first compound 1 µM
[28] = second compound 0.0949 µM, first compound 0.316 µM
[29] = second compound 0.0949 µM, first compound 1 µM
[30] = second compound 0.3 µM, first compound 0.316 µM
[31] = second compound 0.3 µM, first compound 1 µM
[32] = second compound 0.949 µM, first compound 0.316 µM
[33] = second compound 0.949 µM, first compound 1 µM
[34] = second compound 3 µM, first compound 0.316 µM
[35] = second compound 3 µM, first compound 1 µM
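Also: spheroids exposed to agents for 7 days before viability read.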

With Cc1c(S(C)(=O)=O)c(-c2cc(F)cc(N3CCN(c4ccc(NS(=O)(=O)c5ccc(NC(CCN6CCC(C(=O)OCCCP(=O)(O)O)CC6)CSc6ccccc6)c(S(=O)(=O)C(F)(F)F)c5)cc4)CC3)c2)c(-c2ccc(Cl)cc2)n1C(C)C (stereo unspecified) as the compound, how does the viability, T/C (compound 0.1 µM) read?
The viability, T/C was 80.6% [middle of 14 runs].

And the viability, T/C (compound 0.316 µM)?
Its viability, T/C is 73.5% [middle of 14 runs].

What about the viability, T/C (compound 1 µM) of the same compound?
The viability, T/C was 66.1% [middle of 14 runs].

And the viability, T/C (compound 3.16 µM)?
The viability, T/C was 66.3% [middle of 14 runs].

What about the viability, T/C (compound 10 µM) of the same compound?
Its viability, T/C is 61.9% [middle of 14 runs].

What about the pIC50 (compound alone, run of 10/11/2022) of the same compound?
Its pIC50 is < 5.00.

What does the source list for Cn1ncnc1[C@H]1c2n[nH]c(=O)c3cc(F)cc(c23)N[C@@H]1c1ccc(F)cc1 + CCN1C(C(=O)NC23CCC(C(=O)O)(CC2)CC3)C(c2cccc(Cl)c2F)C2(C(=O)Nc3cc(Cl)ccc32)C12CCCCC2?
pIC50 [1]: < 7.00; pIC50 [2]: < 7.00; pIC50 [3]: < 7.00; pIC50 [4]: < 7.00; pIC50 [5]: < 7.00; viability, T/C (second compound 0.03 µM, first compound 0.000316 µM): 110%; viability, T/C (second compound 0.03 µM, first compound 0.001 µM): 102%; viability, T/C [6]: 94.4%; viability, T/C [7]: 87.7%; viability, T/C [8]: 94.3%; viability, T/C [9]: 95.2%; viability, T/C (second compound 0.0949 µM, first compound 0.000316 µM): 105%; viability, T/C (second compound 0.0949 µM, first compound 0.001 µM): 100%; viability, T/C [10]: 116%; viability, T/C [11]: 96.1%; viability, T/C [12]: 94.9%; viability, T/C [13]: 92.3%; viability, T/C (second compound 0.3 µM, first compound 0.000316 µM): 102%; viability, T/C (second compound 0.3 µM, first compound 0.001 µM): 130%; viability, T/C [14]: 97.2%; viability, T/C [15]: 107%; viability, T/C [16]: 87.1%; viability, T/C [17]: 83.4%; viability, T/C (second compound 0.949 µM, first compound 0.000316 µM): 109%; viability, T/C (second compound 0.949 µM, first compound 0.001 µM): 93.8%; viability, T/C [18]: 102%; viability, T/C [19]: 96.6%; viability, T/C [20]: 90.6%; viability, T/C [21]: 92.7%; viability, T/C (second compound 3 µM, first compound 0.000316 µM): 97%; viability, T/C (second compound 3 µM, first compound 0.001 µM): 94.8%; viability, T/C [22]: 78.7%; viability, T/C [23]: 87%; viability, T/C [24]: 84%; viability, T/C [25]: 86.8%

What does the source list for O=C(c1cc(Cc2n[nH]c(=O)c3ccccc23)ccc1F)N1CCN(C(=O)C2CC2)CC1 + CCN1C(C(=O)NC23CCC(C(=O)O)(CC2)CC3)C(c2cccc(Cl)c2F)C2(C(=O)Nc3cc(Cl)ccc32)C12CCCCC2?
pIC50 [1]: < 5.00; pIC50 [2]: < 5.00; pIC50 [3]: < 5.00; pIC50 [4]: < 5.00; pIC50 [5]: < 5.00; viability, T/C [8]: 105%; viability, T/C [9]: 98%; viability, T/C [26]: 85.5%; viability, T/C [27]: 89.9%; viability, T/C (second compound 0.03 µM, first compound 3.16 µM): 86.7%; viability, T/C (second compound 0.03 µM, first compound 10 µM): 70.6%; viability, T/C [12]: 106%; viability, T/C [13]: 96.2%; viability, T/C [28]: 94%; viability, T/C [29]: 93.7%; viability, T/C (second compound 0.0949 µM, first compound 3.16 µM): 87.9%; viability, T/C (second compound 0.0949 µM, first compound 10 µM): 77%; viability, T/C [16]: 104%; viability, T/C [17]: 97.2%; viability, T/C [30]: 99.2%; viability, T/C [31]: 97.1%; viability, T/C (second compound 0.3 µM, first compound 3.16 µM): 73.3%; viability, T/C (second compound 0.3 µM, first compound 10 µM): 79.2%; viability, T/C [20]: 89.9%; viability, T/C [21]: 92.6%; viability, T/C [32]: 103%; viability, T/C [33]: 86.1%; viability, T/C (second compound 0.949 µM, first compound 3.16 µM): 79.3%; viability, T/C (second compound 0.949 µM, first compound 10 µM): 83.6%; viability, T/C [24]: 97.5%; viability, T/C [25]: 81.8%; viability, T/C [34]: 87.5%; viability, T/C [35]: 86.8%; viability, T/C (second compound 3 µM, first compound 3.16 µM): 84.8%; viability, T/C (second compound 3 µM, first compound 10 µM): 65.9%

Which results are given for O=C(c1ccc(F)c(F)c1Nc1ccc(I)cc1F)N1CC(O)([C@@H]2CCCCN2)C1 + CCN1C(C(=O)NC23CCC(C(=O)O)(CC2)CC3)C(c2cccc(Cl)c2F)C2(C(=O)Nc3cc(Cl)ccc32)C12CCCCC2?
pIC50 [1]: 6.68; pIC50 [2]: 6.68; pIC50 [3]: 6.74; pIC50 [4]: 6.73; pIC50 [5]: 7.04; viability, T/C [6]: 118%; viability, T/C [7]: 99.4%; viability, T/C [8]: 97.7%; viability, T/C [9]: 72.9%; viability, T/C [26]: 35.9%; viability, T/C [27]: 10.6%; viability, T/C [10]: 108%; viability, T/C [11]: 114%; viability, T/C [12]: 95.8%; viability, T/C [13]: 85.9%; viability, T/C [28]: 29.6%; viability, T/C [29]: 10.4%; viability, T/C [14]: 106%; viability, T/C [15]: 104%; viability, T/C [16]: 127%; viability, T/C [17]: 73.5%; viability, T/C [30]: 29.8%; viability, T/C [31]: 9.99%; viability, T/C [18]: 99.1%; viability, T/C [19]: 119%; viability, T/C [20]: 100%; viability, T/C [21]: 78.1%; viability, T/C [32]: 26.8%; viability, T/C [33]: 12.4%; viability, T/C [22]: 99.9%; viability, T/C [23]: 97.3%; viability, T/C [24]: 86.3%; viability, T/C [25]: 47.3%; viability, T/C [34]: 17.2%; viability, T/C [35]: 11.4%
